Experiment: Concentration for hnps- Phospholipase A2 was evaluated using radioligand [3H]arachidonate binding assay in Escherichia coli membranes
Type: cell membranes

IC50: 200 nM
SMILES: CCCCCCCCOCC(COP(=O)(O)OCCN)OP(=O)(O)CCCCCCC (stereo unspecified)
